Laboratory results: patent publication US11549115B2, “Compositions and methods for regulated gene expression” (YALE UNIVERSITY, priority 2017, dated 2023)

Test: Sialic acid in murine fecal samples (LC-MS/MS)
Format: in vivo
Conditions: Swiss Webster, mouse, faeces; oral gavage, gnotobiotic mice monocolonized with B. thetaiotaomicron BT0455
Procedure: Groups of 6 germ-free Swiss Webster mice were orally gavaged with 1×10^9 CFU of the desired B. thetaiotaomicron strain. Fecal samples (˜100-200 mg) were collected daily for 12 days. aTC (100 μg/mL) was administered in drinking water for 12 hours after fecal collection on day 1. Fecal samples were homogenized in 1 mL of 1× tris-buffered saline (TBS) with a single 5 mm stainless steel bead using a bead beater (BioSpec Products) at 26° C. for 1 minute on the high setting, followed by vortexing at top speed for 8 minutes. Samples were then centrifuged at 500×g for 1 minute to pellet fibrous and insoluble matter. […]
For sialic acid measurements, 5 μL of internal standard solution (50 μM 1,2,3-^13C3 sialic acid in H2O) were added to each sample (20 μL) and proteins were precipitated through addition of 100 μL organic solvents at −20° C. […] The MassHunter Quantitative Analysis Software (Agilent, version 7.0) was used for peak integration with the most abundant ion fragment as quantifier and the others as qualifiers of the peak. Quantification was based on calibration curves using commercially available sialic acid and the signal intensity of the internal standard spiked into each sample.

half-life: ~9 h
Structure (SMILES): CC(=O)N[C@H]1[C@H]([C@H](O)[C@H](O)CO)OC(O)(C(=O)O)C[C@@H]1O (stereo partly shown) [sialic acid, N-acetylneuraminic acid]
